Measurements from PubChem BioAssay (NCI).
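48-hour exposure; five concentrations; linearly interpolated endpoints. At the GI50, growth is halved. TGI: total growth inhibition.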

Columns and labels:
Assay in all cases: NCI-60 cell line screen, 48 h
OVCAR-8 ovarian = test system: OVCAR-8 ovarian
RPMI-8226 leukemia = test system: RPMI-8226 leukemia
EKVX NSCLC = test system: EKVX NSCLC
MDA-MB-435 = test system: MDA-MB-435
SW-620 colon = test system: SW-620 colon
786-0 renal = test system: 786-0 renal
U251 CNS = test system: U251 CNS
SNB-75 CNS = test system: SNB-75 CNS
SK-MEL-28 melanoma = test system: SK-MEL-28 melanoma
A498 renal = test system: A498 renal
M14 melanoma = test system: M14 melanoma
HL-60(TB) leukemia = test system: HL-60(TB) leukemia
SK-OV-3 ovarian = test system: SK-OV-3 ovarian
NCI/ADR-RES ovarian = test system: NCI/ADR-RES ovarian
NCI-H23 lung = test system: NCI-H23 lung
IGROV1 ovarian = test system: IGROV1 ovarian
HCT-15 colon = test system: HCT-15 colon
HS 578T breast = test system: HS 578T breast
HCT-116 colon = test system: HCT-116 colon
MDA-MB-231 breast = test system: MDA-MB-231 breast
ACHN renal = test system: ACHN renal
SR leukemia = test system: SR leukemia
OVCAR-3 ovarian = test system: OVCAR-3 ovarian
SN12C renal = test system: SN12C renal
UACC-62 melanoma = test system: UACC-62 melanoma
T-47D breast = test system: T-47D breast
BT-549 breast = test system: BT-549 breast
MOLT-4 leukemia = test system: MOLT-4 leukemia
UACC-257 melanoma = test system: UACC-257 melanoma
MALME-3M melanoma = test system: MALME-3M melanoma
TK-10 renal = test system: TK-10 renal
HOP-62 NSCLC = test system: HOP-62 NSCLC
UO-31 renal = test system: UO-31 renal
HT29 colon = test system: HT29 colon
A549 NSCLC = test system: A549 NSCLC
SF-268 CNS = test system: SF-268 CNS
CAKI-1 renal = test system: CAKI-1 renal
KM12 colon = test system: KM12 colon
NCI-H522 lung = test system: NCI-H522 lung
SK-MEL-2 melanoma = test system: SK-MEL-2 melanoma
DU-145 prostate = test system: DU-145 prostate
CCRF-CEM leukemia = test system: CCRF-CEM leukemia
PC-3 prostate = test system: PC-3 prostate
MCF7 breast = test system: MCF7 breast
LOX IMVI melanoma = test system: LOX IMVI melanoma
COLO 205 colon = test system: COLO 205 colon
NCI-H226 lung = test system: NCI-H226 lung
SF-295 CNS = test system: SF-295 CNS
OVCAR-4 ovarian = test system: OVCAR-4 ovarian
K-562 leukemia = test system: K-562 leukemia
OVCAR-5 ovarian = test system: OVCAR-5 ovarian
SK-MEL-5 melanoma = test system: SK-MEL-5 melanoma
SNB-19 CNS = test system: SNB-19 CNS
HOP-92 NSCLC = test system: HOP-92 NSCLC
RXF 393 renal = test system: RXF 393 renal
HCC-2998 colon = test system: HCC-2998 colon
SF-539 CNS = test system: SF-539 CNS
NCI-H460 lung = test system: NCI-H460 lung

## COC(=O)c1c2c(c(C)[n+]([O-])c1C)C(=O)C=C(NCc1cccc(Cl)c1)C2=O
OVCAR-8 ovarian
  GI50: 275 nM
  TGI: 1210 nM
RPMI-8226 leukemia
  GI50: 860 nM
  TGI: 4280 nM
EKVX NSCLC
  GI50: 762 nM
  TGI: 2150 nM
MDA-MB-435
  GI50: 116 nM
  TGI: 251 nM
SW-620 colon
  GI50: 244 nM
  TGI: 1230 nM
786-0 renal
  GI50: 1440 nM
  TGI: 3640 nM
U251 CNS
  GI50: 367 nM
  TGI: 1550 nM
SNB-75 CNS
  GI50: 1640 nM
  TGI: 3010 nM
SK-MEL-28 melanoma
  GI50: 716 nM
  TGI: 2090 nM
A498 renal
  GI50: 1210 nM
  TGI: 2460 nM
M14 melanoma
  GI50: 280 nM
  TGI: 1560 nM
HL-60(TB) leukemia
  GI50: 287 nM
  TGI: 935 nM
SK-OV-3 ovarian
  GI50: 1920 nM
  TGI: 5140 nM
NCI/ADR-RES ovarian
  GI50: 307 nM
  TGI: 1790 nM
NCI-H23 lung
  GI50: 463 nM
  TGI: 2540 nM
IGROV1 ovarian
  GI50: 221 nM
  TGI: 1090 nM
HCT-15 colon
  GI50: 205 nM
  TGI: 1520 nM
HS 578T breast
  GI50: 1770 nM
  TGI: 6790 nM
HCT-116 colon
  GI50: 284 nM
  TGI: 976 nM
MDA-MB-231 breast
  GI50: 261 nM
  TGI: 2770 nM
ACHN renal
  GI50: 661 nM
  TGI: 2040 nM
SR leukemia
  GI50: 350 nM
  TGI: 6640 nM
OVCAR-3 ovarian
  GI50: 221 nM
  TGI: 665 nM
SN12C renal
  GI50: 298 nM
  TGI: 1020 nM
UACC-62 melanoma
  GI50: 74.1 nM
  TGI: 459 nM
T-47D breast
  GI50: 187 nM
  TGI: 1710 nM
BT-549 breast
  GI50: 1260 nM
  TGI: 2630 nM
MOLT-4 leukemia
  GI50: 505 nM
  TGI: 1890 nM
UACC-257 melanoma
  GI50: 234 nM
  TGI: 725 nM
MALME-3M melanoma
  GI50: 136 nM
  TGI: 309 nM
TK-10 renal
  GI50: 2430 nM
  TGI: 6520 nM
HOP-62 NSCLC
  GI50: 1130 nM
  TGI: 2800 nM
UO-31 renal
  GI50: 1090 nM
  TGI: 2350 nM
HT29 colon
  GI50: 310 nM
A549 NSCLC
  GI50: 462 nM
  TGI: 2220 nM
SF-268 CNS
  GI50: 737 nM
  TGI: 3150 nM
CAKI-1 renal
  GI50: 204 nM
  TGI: 1950 nM
KM12 colon
  GI50: 200 nM
  TGI: 1690 nM
NCI-H522 lung
  GI50: 261 nM
  TGI: 1700 nM
SK-MEL-2 melanoma
  GI50: 1040 nM
  TGI: 2770 nM
DU-145 prostate
  GI50: 821 nM
  TGI: 2180 nM
CCRF-CEM leukemia
  GI50: 444 nM
PC-3 prostate
  GI50: 257 nM
  TGI: 2600 nM
MCF7 breast
  GI50: 238 nM
  TGI: 766 nM
LOX IMVI melanoma
  GI50: 68.7 nM
  TGI: 1350 nM
COLO 205 colon
  GI50: 292 nM
  TGI: 961 nM
NCI-H226 lung
  GI50: 1410 nM
  TGI: 3550 nM
SF-295 CNS
  GI50: 422 nM
  TGI: 1660 nM
OVCAR-4 ovarian
  GI50: 210 nM
  TGI: 938 nM
K-562 leukemia
  GI50: 85 nM
  TGI: > 30200 nM
OVCAR-5 ovarian
  GI50: 1180 nM
  TGI: 2570 nM
SK-MEL-5 melanoma
  GI50: 167 nM
  TGI: 316 nM
SNB-19 CNS
  GI50: 1010 nM
  TGI: 2180 nM
HOP-92 NSCLC
  GI50: 1810 nM
  TGI: 4100 nM
RXF 393 renal
  GI50: 1200 nM
  TGI: 2530 nM
HCC-2998 colon
  GI50: 329 nM
  TGI: 1420 nM
SF-539 CNS
  GI50: 525 nM
  TGI: 1490 nM
NCI-H460 lung
  GI50: 381 nM
  TGI: 1600 nM
